Six compounds from ChEMBL document CHEMBL1149383, “Discovery of a daunorubicin analogue that exhibits potent antitumor activity and overcomes P-gp-mediated drug resistance” (J Med Chem, 2006) can be followed below.

Activity calls are given as the source filed them. No cut-off for these calls is given here. Bounds are passed on as bounds.

Test [1] has as its system K562. Nature of the test: Increase in the level of drug uptake in Dox-resistant K562 cells in presence of cyclosporine over its absence. Particulars: Homo sapiens. Format: functional, cell-based.
Test [2] deals with K562. Nature of the test: Increase in the level of drug efflux in Dox-resistant K562 cells in presence of cyclosporine over its absence. In kind it is functional, cell-based. Particulars: Homo sapiens.
The test system of test [3] is K562. Kind of test: Cytotoxicity against Dox-resistant K562 cells by MTS. Format: functional, cell-based. Particulars: Homo sapiens.
Test [4] concerns K562. Kind of test: Cytotoxicity against Dox-resistant K562 cells by MTS at 1 uM and in absence of cyclosporine. In kind it is functional, Homo sapiens.
The subject of test [5] is K562. Kind of test: Drug resistance index, ratio of IC50 in Dox-resistant K562 cells over Dox-sensitive cells. Format: functional, Homo sapiens.
Test [6] deals with Mus musculus. Nature of the test: Mortality in mice with Dox-resistant K562 xenografts in 20 days at 5-10 mg/kg, ip. In kind it is functional.
Test [7] concerns K562. Nature of the test: Cytotoxicity against Dox-resistant K562 cells by MTS at 1 uM and in presence of cyclosporine. In kind it is functional, Homo sapiens.
Test [8] relates to Mus musculus. Kind of test: Survival in mice with Dox-resistant K562 xenografts after 50 days at 5-10 mg/kg, ip. In kind it is functional.
The subject of test [9] is KB 3-1. Kind of test: Cytotoxicity against drug resistant KB-V cells. Format: functional, cell-based. Particulars: Homo sapiens.
Test [10] relates to KB 3-1. Kind of test: Cytotoxicity against human epidermoid carcinoma KB-3-1 cells. Format: functional, cell-based.
The subject of test [11] is K562. Nature of the test: Increase in cytotoxicity against Dox-resistant K562 cells in presence of Cyclosporine over its absence. In kind it is functional, cell-based. The conditions noted are these: Homo sapiens.

The term IC50 denotes the concentration that inhibits the measured activity by half. A lower IC50 goes with higher potency.

For the compound `COc1cccc2c1C(=O)c1c(O)c3c(c(O)c1C2=O)C[C@@](O)(C(C)=O)C[C@@H]3O[C@H]1C[C@H](n2cc(CCO)nn2)[C@H](O)[C@H](C)O1`, the outcome in [1] and in [2] was inactive.
As to `COc1cccc2c1C(=O)c1c(O)c3c(c(O)c1C2=O)C[C@@](O)(C(C)=O)C[C@@H]3O[C@H]1C[C@H](n2cc(CCCO)nn2)[C@H](O)[C@H](C)O1`, the outcome in test [1] and in test [2] was inactive.
In test [3], `COc1cccc2c1C(=O)c1c(O)c3c(c(O)c1C2=O)C[C@@](O)(C(C)=O)C[C@@H]3O[C@H]1C[C@H](N)[C@H](O)[C@H](C)O1` [DAUNORUBICIN] gave an IC50 of more than 5 µM. Also, the Activity in [4] is 30%; in test [6] it was 50%; in [7] it was 70%. The “Ratio IC50” value in [5] is 333. Besides, the outcome in test [1] and in test [2] was Active.
On to `COc1cccc2c1C(=O)c1c(O)c3c(c(O)c1C2=O)C[C@@](O)(C(C)=O)C[C@@H]3O[C@H]1C[C@H](n2cc(CO)nn2)[C@H](O)[C@H](C)O1`, for which the result in test [1] and in test [2] was inactive.
Turning to `COc1cccc2c1C(=O)c1c(O)c3c(c(O)c1C2=O)C[C@@](O)(C(C)=O)C[C@@H]3O[C@H]1C[C@H](n2cc(CCCCO)nn2)[C@H](O)[C@H](C)O1`, the result in [1] and in test [2] was inactive.
Consider `COc1cccc2c1C(=O)c1c(O)c3c(c(O)c1C2=O)C[C@@](O)(C(C)=O)C[C@@H]3O[C@H]1C[C@H](N=[N+]=[N-])[C@H](O)[C@H](C)O1`, for which, in test [8], the Activity turned out to be 100%. The concentration for half-maximal inhibition (IC50) in test [9] and in test [10] was 0.3 µM throughout. Besides, the “Ratio IC50” value in test [5] is 13. Moreover, the outcome in test [1], in test [2] and in test [11] was inactive.
